According to paper PMC7713230, “Upconversion NIR-II fluorophores for mitochondria-targeted cancer imaging and photothermal therapy” (Nature Communications, 2020):

Legend:
[1] = test system: 143B cells; experiment: Mitochondrial membrane potential by JC-1 assay; assay type: cell-based, human; settings: CCCP 40 μM 6 h, positive control, control = 100%
Method: (§1) 20 mm confocal dishes, and cultured for 12 h at a density of 1×10^5 cells/well. Then, 200 µL of H4-PEG-PT (64 µM) was introduced into the confocal dishes. After 7 h incubation, 143B and HepG2 cells were washed twice with PBS, stained with Hoechst staining kit in PBS for 20 min. The tumor cell samples were immediately examined by an inverted Zeiss Axiovert 200 fluorescence microscopy at a 20× objective, using a high-pressure mercury lamp as an excitation source.
(§2) 143B cells (6×103) were incubated in 96 wells plate at 37 °C for 12 h. Then, cells were treated with 64 μM H4-PEG-PT or 40 μM CCCP for 6 h and irradiated by an 808 nm laser for 3 min each well. After irradiation, ATP level was immediately determined by an ATP determination kit (cat. no. A22066) from Thermo Fisher Scientific with 1% Triton X 100 water solution for cell permeabilization. After 10 min incubation, the luminescence intensity was then detected using a microplate reader (TECAN, Infinite M200 […]
(§3) Detection of mitochondrial membrane potential by JC-1 assay
(§4) 143B cells (6×103) were incubated in 96 wells plate for 12 h. Then, cells were treated with H4-PEG-PT (64 μM), or CCCP (40 μM) for 6 h and irradiated by an 808 nm laser for 3 min. […] Fluorescence intensity was then detected using a microplate reader (TECAN, Infinite M200 Pro) with excitation at 485 nm (green) or 535 nm (red) and emissions at 535 nm (green) or 595 nm (red). […]

[2] = test system: 143B cells; experiment: Detection of ATP level; assay type: cell-based, human; settings: CCCP 40 μM 6 h, positive control, control = 100%
Method: as §1, §2, §3, §4

[3] = test system: mitochondria of 143B cells; experiment: Mitochondrial colocalization by confocal laser scanning microscopy; assay type: cell-based, human; settings: concentrations lower than 10 nM, same experimental conditions
Method: […] Scale bar: 10 μm. Results in (a–f) are representative of three independent experiments.
143B (50,000 cells) were seeded in round discs and incubated in 1 mL of DMEM medium (pH = 7.4) containing 10% FBS for 24 h. After replacing the medium with 1 mL of fresh medium, 3k-PEG, H4-PEG, and H4-PEG-PT were added, respectively, and the cells were allowed to incubate for 6 h. After removing the medium and subsequently washing with PBS buffer (pH = 7.4) thrice, mitotracker green was added to stain the mitochondria for 30 min. The cells were viewed under a FV1200 CLSM (Olympus) and Leica SPE.

[4] = test system: osteosarcoma cell lines (e.g., 143B cells); settings: cited from earlier work
Description: Osteosarcoma is the third most common malignant tumor and accounts for more than 60% of all malignant bone tumors in children and adolescents. Surgical excision of all primary and metastatic tumors remains the essential strategy behind osteosarcoma treatment. However, current diagnostic tools allow detection of only 8–15% of bone or lung metastatic patients[52],[53]. Thus, it is urgent to develop new theranostic strategies for early diagnosis, therapy, and monitoring responses to osteosarcoma therapies[54],[55]. The oligopeptide PPSHTPT (PT) was first designed to mimic the properties of th ...

N#CC(C#N)=NNc1cccc(Cl)c1 [CCCP, carbonyl cyanide m-chlorophenylhydrazone]
ratio of J-aggregates to monomers [1]: 63% | cellular ATP level [2]: ~ 78%

CN1/C(=C/C=C/c2n(Cc3ccc(CCl)cc3)c3cc(Cl)c(Cl)cc3[n+]2Cc2ccc(CCl)cc2)Oc2ccccc21 [Mitotracker Green]
fluorescent intensity in mitochondrial imaging [3]: too weak to be detected

PPSHTPT [osteosarcoma-targeting oligopeptide PPSHTPT, mimics osteocalcin]
affinity and specificity for osteosarcoma cell lines [4]: high affinity and specificity
